Results taken from patent publication US7595336B2, “Isatine derivatives with neurotrophic activity” (Neurosearch A/S, priority 2002, dated 2009).

Columns and labels:
PC12 cells [1] = test: Survival of differentiated PC12 cells in serum-free medium (MTS); type: cell-based; conditions: for Survival Effects on Differentiated PC12 Cells in Serum-free Medium (% of 3 nM NGF): 4 days incubation, MTS; for Rescue of PC12 cells in serum-free medium: viability as reduction of MTS
Method: In this experiment the protective effect of the compounds on the survival of the pheochromocytoma cell line PC12 deprived of other survival factors were assessed following differentiation of the cells to a neuron-like phenotype.
Cells were seeded in collagen coated 96 well plates at a cell density of 8,000/cm^2 in DMEM with 7.5% Foetal Calf Serum (FCS), 7.5% Donor Horse Serum (DHS) and 2 nM NGF and cultured for 6 days. The medium was then changed to DMEM without serum supplemented with the compound in the indicated concentrations. As a positive control, parallel wells receiving serum-free DMEM without addition of vehicle […] 3 nM NGF were included.
After 4 days of incubation, cell viability was evaluated by using MTS (3-(4,5-dimethylthiazol-2-yl)-5-(3-carboxymethoxyphenyl)-2-(4-sulfonyl)2H-tetrazolium) which is reduced by metabolically active cells. Data are expressed as % of the response seen with 3 nM NGF corrected for residual MTS reduction activity in the parallel serum-free cultures (“% of NGF control”).

PC12 cells [2] = conditions: two days
Method: In this experiment the ability of the compounds to potentiate NGF-induced neurite outgrowth in PC12 cells was assessed.
PC12 cells were seeded in tissue culture plates coated with collagen at a cell density of 15,000/cm^2 in DMEM with 7.5% FCS and 7.5% DHS. Next day the medium was changed to medium supplemented with the NS compound in the absence or presence of NGF.
Two days after the medium change, cells were fixed in 4% paraformaldehyde and stained for neurofilament. Cells were fixed by in tissue culture plates by incubation in 4% paraformaldehyde in PBS followed permeabilization in 0.05% Triton-X100 in the presence of 10% DHS to block non-specific binding sites. After washing, the plates were incubated with anti-neurofilament (NF) antibody (clone RT97) from Boehringer diluted 1:200 in 0.05% Triton-X100/10% DHS followed by incubation with biotinylated anti-mouse immunoglobulin RPN1001 (Amersham) diluted 1:200. NF-immunoreactive cells were stained using the ABC-complex/HRP kit K0355 (DAKO) and 3,3-diaminobenzidine tetrahydrochloride (DAB) as substrate.
Estimation of total cell number per well, as well as the total neurite length was done using unbiasedly 2D stereology (CAST-grid system connected to a Olympus BH-2 microscope).

Akt kinase = conditions: 1-3 μM; PC12 cells; 24 hours with NGF
Method: (§1) Approximately 200,000 PC12 cells were plated in a 24 well plate in DMEM with 7.5% FCS and 7.5% DHS and incubated ON.
(§2) Total cell lysate was electrophoresed on 8-18% gradient SDS gels which were electroblotted to PVDF membranes. Phosphorylated ERK1 and ERK2 were immunodetected by using mouse anti-Phospho-p44/p42 MAP kinase E10 mAb (New England Biolabs #9106) and HRP-linked anti-mouse antibody. Phosphorylated Akt kinase was immunodetected by using rabbit phospho-specific Akt (Ser473) antibody (New England Biolabs # 9271) and HRP-linked anti-rabbit antibody. Bands were detected by chemilumininescence using the ECL system (Amersham).

the ERKs (ERK1 and ERK2) = conditions: 1-3 μM; PC12 cells; 24 hours with NGF
Method: as §1, §2

CREB = conditions: after 5 minutes stimulation (not shown)
Method: The cyclic AMP-responsive element binding protein (CREB) is a post-translationally activated transcription factor that has been implicated in numerous neuronal functions including cell survival, differentiation and neurotransmission.
Approximately 7.5×10^5 PC12 cells per well were plated in collagen coated 6-well plates in DMEM with 0.75% FCS and 0.75% DHS and incubated for 48 hours. Cells were then further starved for 2 hours in serum free DMEM before stimulation with the indicated compounds for 5, 10 or 20 minutes. Cells were harvested in 1× heated sample buffer (2% SDS, 400 mM Tris, pH 8.0, 10 mM DTT and 0.25 mM Na3VO4) and the cell lysates were electrophoresed on 8-18% gradient SDS gels, which were electroblotted to PVDF membranes.
Phosphorylated CREB were immunodetected by using rabbit anti-Phospho-CREB (UpState Biotechnology #06-519) followed by HRP-linked anti-rabbit antibody (Amersham Life Science #NA 934). Bands were detected by chemilumininescence using the ECL system (Amersham).

[3] = test system: dopaminergic neurons from rat E14 ventral mesencephali; conditions: 1 μM; E14 rat VM; 7 days in culture
Method: Embryonic rat brains (Wistar; E14) were isolated under sterile conditions placed in chilled Gey's balanced salt solution (GIBCO) with glucose (6.5 mg/ml).
The ventral mesencephali were dissected out, cut into small tissue pieces, placed in Neurobasal medium with B27 supplement and gently pressed through a 80 μm Nitex filter. The cells were counted using a hemocytometer and plated in a 6 well multi-dish at a density of approximately 2.0×10^6 cells/well. Culture dishes were pre-coated with poly-D-lysine.
After 1 hour, the medium was removed and fresh medium added (1.5 ml/well). […] Untreated cultures served as controls. The medium was changed every other day and antimitotics and antibiotics were not used at any stage.
After 7 days in culture, cultures were then immunostained for tyrosine hydroxylase (TH). Briefly, the cells were washed in 0.05M tris-buffered saline (TBS, pH 7.4) containing 1% Triton X-100 for 3×15 minutes and incubated with 10% foetal bovine serum (FBS, Life Technologies) in TBS for 30 minutes. The cells were then incubated for 24 hours at 4° C. with monoclonal mouse anti-TH antibody (Boehringer Mannheim) diluted 1:600 in TBS with 10% FBS. After rinsing in TBS with 1% Triton X-100 for 3×15 minutes, cells were incubated for 60 minutes with biotinylated anti-mouse IgG antibody (Amersham) diluted 1:200 in TBS with 10% FBS. […] TH-immunoreactive (ir) cells were counted manually.

[4] = test system: dopaminergic neurons from pig E28 ventral mesencephali; conditions: 1 μM; E28 pig VM slice cultures; 21 days in vitro
Method: Ventral mesencephali (VM) were isolated from porcine embryos (E28) under sterile conditions, chopped into 400 μm slices and placed in chilled Gey's balanced salt solution (GIBCO) with glucose (6.5 mg/ml).
In brief, slices were placed on semiporous membranes (Millipore, 0.3 μm; 4 slices/membrane) placed as inserts in 6-well plates (Costar) with serum containing medium (Gibco BRL). Each well contained 1 ml medium (50% Optimem, 25% horse serum, 25% Hank's balanced salt solution (all GIBCO)) supplemented with D-glucose to a final concentration of 25 mM.
At day 3, the medium was replaced by defined serum-free medium (Neurobasal medium with B27 supplement from Life Technologies). The cultures were grown in an incubator with 5% CO2 at 36° C. for 21 days after which the sections were immunostained for TH as described in Example 4. […] Untreated cultures served as controls. The medium was changed twice a week and antimitotics and antibiotics were not used at any stage.
The area of the culture slice was delineated and a counting frame was randomly placed to mark the first area to be sampled.

[5] = test system: transient global ischaemia in gerbils (hippocampal CA1-layer damage); conditions: gerbil; 4 minutes ischaemia; 2×30 mg/kg ip. after the insult; four days later
Method: Gerbils were anaesthetised with halothane, right and left carotid arteries located and occluded for 4 minutes. Animals were kept at normal body temperature before and after the operation using heating lamps. During the operation, the gerbils were placed on heating pads, the body temperature was controlled and maintained at 37±0.5° C.
Four days later, the animals were sacrificed, brains removed and cooled to −70° C. Thereafter, the brains were sectioned in 20 μm thick sections of which 5-7 with hippocampal tissue were selected and stained with hematoxylin-eosin.
The degree of hippocampal damage was categorised into one of four groups:
Group 1: no damage in the CA1-layer;
Group 2: the CA1-layer partly damaged;
Group 3: the CA1-layer completely damaged; and
Group 4: damage in more then just the CA1-layer. The total ischaemia score was obtained as the sum of scores in the right- and left hemisphere. Kendall's tau test was used for statistic evaluation.

Row | SMILES | Survival Effects on Differentiated PC12 Cells in Serum-free Medium (% of 3 nM NGF) (PC12 cells [1]; 0.1 μM) | Survival Effects on Differentiated PC12 Cells in Serum-free Medium (% of 3 nM NGF) (PC12 cells [1]; 0.2 μM) | Survival Effects on Differentiated PC12 Cells in Serum-free Medium (% of 3 nM NGF) (PC12 cells [1]; 0.5 μM) | Survival Effects on Differentiated PC12 Cells in Serum-free Medium (% of 3 nM NGF) (PC12 cells [1]; 0.75 μM) | Survival Effects on Differentiated PC12 Cells in Serum-free Medium (% of 3 nM NGF) (PC12 cells [1]; 1 μM) | Survival Effects on Differentiated PC12 Cells in Serum-free Medium (% of 3 nM NGF) (PC12 cells [1]; 2 μM) | Survival Effects on Differentiated PC12 Cells in Serum-free Medium (% of 3 nM NGF) (PC12 cells [1]; 5 μM) | Survival Effects on Differentiated PC12 Cells in Serum-free Medium (% of 3 nM NGF) (PC12 cells [1]; 7.5 μM) | Survival Effects on Differentiated PC12 Cells in Serum-free Medium (% of 3 nM NGF) (PC12 cells [1]; 10 μM) | Rescue of PC12 cells in serum-free medium (PC12 cells [1]) | Effect on neurite outgrowth in PC12 cells, compound alone (PC12 cells [2]; 1 and 3 μM, without NGF) | Potentiation of NGF-induced neurite outgrowth in PC12 cells (PC12 cells [2]; with NGF) | Effect on NGF-induced phosphorylation of the Akt kinase (Akt kinase) | Effect on NGF-induced phosphorylation of the ERKs (the ERKs (ERK1 and ERK2)) | Combined effect of NGF and compound on CREB phosphorylation (CREB) | More TH-immunoreactive cells compared to untreated control cultures [3] [%] | More TH-immunoreactive cells compared to untreated control cultures [4] [%] | Animals with no or only partially damage in the CA1 neurons of the hippocampus [5]
1 | O=C1Nc2ccc(-c3ccc(Cl)cc3)cc2C1=NO [Compound G-3, 5-(4-Chlorophenyl)isatin-3-oxime] | −0.34 ± 1.59 % of 3 nM NGF | 23.83 ± 3.61 % of 3 nM NGF | 28.20 ± 2.55 % of 3 nM NGF | 30.66 ± 3.83 % of 3 nM NGF | 36.11 ± 3.02 % of 3 nM NGF | 41.53 ± 3.00 % of 3 nM NGF | 49.63 ± 4.67 % of 3 nM NGF | 67.60 ± 5.54 % of 3 nM NGF | 72.23 ± 4.34 % of 3 nM NGF | dose-dependent rescue |  |  |  |  |  |  |  | 
2 | CN1CCc2c(-c3ccc(Cl)cc3)cc3c(c2C1)NC(=O)C3=NO.Cl [Compound G-1, 5-(4-Chlorophenyl)-8-methyl-6,7,8,9-tetrahydro-1-H-pyrrolo[3.2-h]isoquinoline-2,3-dione-3-oxime hydrochloric acid salt] | 11.09 ± 1.42 % of 3 nM NGF | 12.78 ± 2.01 % of 3 nM NGF | 28.62 ± 1.77 % of 3 nM NGF | 32.05 ± 3.36 % of 3 nM NGF | 52.60 ± 3.40 % of 3 nM NGF | 60.47 ± 2.26 % of 3 nM NGF | 74.85 ± 4.67 % of 3 nM NGF | 62.08 ± 3.70 % of 3 nM NGF | 63.80 ± 4.09 % of 3 nM NGF | dose-dependent rescue | some effect on neurite outgrowth | significantly potentiate NGF-induced neurite outgrowth | potentiate NGF-induced phosphorylation | potentiate NGF-induced phosphorylation | additive effect | 81 | 37 | 
3 | Cl.O=C1Nc2c(cc(-c3ccc(Cl)cc3)c3c2CCCC3)C1=NO [Compound G-2, 5-(4-Chlorophenyl)-6,7,8,9-tetrahydro-1-H-pyrrolo[3.2-h]naphthalene-2,3-dione-3-oxime hydrochloric acid salt] | 7.77 ± 1.86 % of 3 nM NGF | 16.58 ± 4.36 % of 3 nM NGF | 17.30 ± 4.43 % of 3 nM NGF | 23.54 ± 1.60 % of 3 nM NGF | 27.63 ± 6.91 % of 3 nM NGF | 33.31 ± 5.22 % of 3 nM NGF | 50.25 ± 4.28 % of 3 nM NGF | 54.83 ± 4.37 % of 3 nM NGF | 74.66 ± 5.70 % of 3 nM NGF | dose-dependent rescue |  |  |  |  |  |  |  | ≈ 50%
